Measured values as given in patent US12630571B2, “Crystal form of L-glufosinate and preparation method and use thereof” (JIANGSU SEVENCONTINENT GREEN TECHNOLOGY RESEARCH INSTITUTE …, priority 2022, dated 2026).

Tests used:
Stability test (storage) = type: physicochemical; settings: for Appearance (change after storage) / Crystal form (change after storage) / Weight change (%): humidity 65%; for stability (in words): compared with the crystal forms in CN111065270A
Procedure: Experimental method: The crystal forms A, B, and C were stored at a temperature of 60° C. for 7 days, the crystal form changes were re-measured, and the specific results were shown in Table 9.
The crystals obtained in Embodiments 4-9 were stored for 48 days at 25° C. and 60° C., respectively, the crystal form changes were re-measured, and the specific results were shown in Table 10.

Hygroscopicity test = type: physicochemical; settings: 48 h; for Weight change (%): 100 g solid
Procedure: Experimental scheme: 100 g of solids were placed under different humidity for 48 h, and re-measured whether there was a significant change in their quality, and visually inspected whether there was a significant change in their appearance, so as to determine whether the crystal form had hygroscopicity, and the specific results of the crystal forms A, B, and C were shown in Table 7, and the specific results of the crystal forms D and E were shown in Table 8.

[1] = DSC heat absorption and decomposition temperatures (high temperature stability); type: physicochemical; settings: for Peak: DSC endothermic peak temperature; for Start of heat absorption: DSC
Procedure: (§1) In the present application, the test instruments and conditions used in the experiment are as follows: • 1. The crystal form of the product was analyzed by X-ray powder diffractometer (XRD, Rigaku D/Max-2500 type, Cu Kα radiation, λKα=0.15406 nm), the emission voltage and current were 40 kV and 100 mA, respectively, and the scanning range was 2-40°, the scan step size was 0.02°, and the scan rate was 8°/min. • 2. Differential Scanning calorimetry (DSC) and Thermogravimetric Analysis (TGA): DSC and TGA analyses were performed using a TGA/DSC Model 1 instrument from Mettler Toledo. The DSC measurement method was as follows: take 5-10 mg of the sample into an aluminum crucible, put it into the instrument, set the nitrogen flow rate to 50 ml/min, 200 ml/min, and increase the temperature from 30° C. to 200° C. at a rate of 10° C./min, and analysis was performed using STAR software from Mettler Toledo. The TGA measurement method was as follows: take 5-10 mg of the sample into an aluminum crucible, put it into the instrument, set the nitrogen flow rate to 20 ml/min, 50 ml/min, and increase the temperature from 30° C. to 200° C. at a rate of 10° C./min, and analysis was performed using STAR software from Mettler Toledo.
For the crystal form A, crystal form B, crystal form D and crystal form E of L-glufosinate ammonium, the data comparison of its high temperature stability were shown in Table 6.

[2] = Thermogravimetric analysis (TGA); type: physicochemical
Procedure: as §1

Bluegrass = test: Field efficacy experiment, plant control effect; type: in vivo; settings: 10% aqueous solution, 120 mL/mu, 7 days after treatment
Procedure: (§2) The combination of preparation processing and field efficacy test was adopted below.
(§3) The above-mentioned formulations were prepared with the crystals of the embodiments of the present disclosure and the crystal form A in the patent CN111065270A respectively for field efficacy experiments. It was detected that the physical and chemical properties of the aqueous solution products prepared by each crystal form were stable and met the needs of production and use, and at the same time, field experiments were carried out on different weeds. The dosage was 120 mL/mu.
(§4) Referring to the “Pesticide-Guidelines for the field efficacy trials”, 5 sites were investigated in each plot, each site was 1 square meter, and the types of weeds, the total number of plants, the symptoms of poisoning, the number of dead plants, etc. were recorded for each treatment 7 days after the treatment, and then the results of the plant control effect were counted, and the weed mortality was calculated and counted specifically.

Alopecurus aequalis = test: Field efficacy experiment, plant control effect; type: in vivo; settings: 10% aqueous solution, 120 mL/mu, 7 days after treatment
Procedure: as §2, §3, §4

Euphorbia helioscopia = test: Field efficacy experiment, plant control effect; type: in vivo; settings: 10% aqueous solution, 120 mL/mu, 7 days after treatment
Procedure: as §2, §3, §4

[3] = test system: weeds such as Rumex, Alopecurus aequalis, Euphorbia helioscopia, and bluegrass; test: Field efficacy experiment, summary statements over all weeds; type: in vivo; settings: difference in plant control effect
Procedure: as §2, §3, §4

Rumex = test: Field efficacy experiment, plant control effect; type: in vivo; settings: 10% aqueous solution, 120 mL/mu, 7 days after treatment
Procedure: as §2, §3, §4

[4] = listed as Crystal form E of L-glufosinate ammonium
[5] = listed as Crystal form E of L-Glufosinate Ammonium
[6] = listed as Crystal form E of Embodiment 5 of the present disclosure
[7] = listed as Crystal form D of L-glufosinate ammonium
[8] = listed as Crystal form D of L-Glufosinate Ammonium
[9] = listed as Crystal form D of Embodiment 4 of the present disclosure
[10] = listed as Crystal form B of L-glufosinate ammonium
[11] = listed as Crystal form B of Embodiment 2 of the present disclosure
[12] = listed as Crystal form A of L-glufosinate ammonium
[13] = listed as Crystal form A of Embodiment 1 of the present disclosure

Compound: CP(=O)(O)CC[C@H](N)C(=O)O [Crystal form C, L-glufosinate]
- Appearance (change after storage) (Stability test (storage); 60° C., 7 days): Unchanged
- Crystal form (change after storage) (Stability test (storage); 60° C., 7 days): Unchanged
- stability (in words) (Stability test (storage)): excellent stability
- Weight change (%) (Hygroscopicity test; 20° C., humidity 65%): +0.02%
- Weight change (%) (Hygroscopicity test; 20° C., humidity 80%): +1.54%

Compound: CP(=O)(O)CC[C@H](N)C(=O)O.N [Crystal form E, L-glufosinate ammonium]
- Appearance (change after storage) (Stability test (storage); 25° C., 48 days): Unchanged
- Crystal form (change after storage) (Stability test (storage); 25° C., 48 days): Unchanged
- Weight change (%) (Stability test (storage); 25° C., 48 days, listed as Embodiment 5): +0.02%
- Weight change (%) (Stability test (storage); 25° C., 48 days, listed as Embodiment 8): +0.02%
- Weight change (%) (Stability test (storage); 25° C., 48 days, listed as Embodiment 9): +0.02%
- Weight change (%) (Stability test (storage); 60° C., 48 days, listed as Embodiment 5): +0.01%
- Weight change (%) (Stability test (storage); 60° C., 48 days, listed as Embodiment 8): +0.02%
- Weight change (%) (Stability test (storage); 60° C., 48 days, listed as Embodiment 9): +0.02%
- Peak [1, 4]: 185.833° ° C.
- Start of heat absorption [1, 4]: 147° ° C.
- temperature below which the weight of the crystal was basically unchanged [2, 5]: 95.5 °C
- temperature from which weight decreased rapidly (decomposition) [2, 5]: 226.5 °C
- temperature from which weight started to decrease slowly (release of ammonia gas) [2, 5]: 147 °C
- slow weight decrease ([2]; starting at 95.5° C.): 1.2%
- Plant control effect (%) Bluegrass (Bluegrass; [6]): 85%
- Plant control effect (%) Alopecurus aequalis (Alopecurus aequalis; [6]): 85%
- Plant control effect (%) Euphorbia helioscopia (Euphorbia helioscopia; [6]): 90%
- Weight change (%) (Hygroscopicity test; 25° C., humidity 65%, listed as Embodiment 5): +0.02%
- Weight change (%) (Hygroscopicity test; 25° C., humidity 65%, listed as Embodiment 8): +0.02%
- Weight change (%) (Hygroscopicity test; 25° C., humidity 65%, listed as Embodiment 9): +0.02%
- Weight change (%) (Hygroscopicity test; 25° C., humidity 80%, listed as Embodiment 5): +1.23%
- Weight change (%) (Hygroscopicity test; 25° C., humidity 80%, listed as Embodiment 8): +1.15%
- Weight change (%) (Hygroscopicity test; 25° C., humidity 80%, listed as Embodiment 9): +1.18%

Compound: CP(=O)(O)CC[C@H](N)C(=O)O.N [Crystal form D, L-glufosinate ammonium]
- Weight change (%) (Stability test (storage); 25° C., 48 days, listed as Embodiment 4): +0.03%
- Weight change (%) (Stability test (storage); 25° C., 48 days, listed as Embodiment 6): +0.03%
- Weight change (%) (Stability test (storage); 25° C., 48 days, listed as Embodiment 7): +0.01%
- Appearance (change after storage) (Stability test (storage); 60° C., 48 days): Unchanged
- Crystal form (change after storage) (Stability test (storage); 60° C., 48 days): Unchanged
- Weight change (%) (Stability test (storage); 60° C., 48 days, listed as Embodiment 4): +0.02%
- Weight change (%) (Stability test (storage); 60° C., 48 days, listed as Embodiment 6): +0.02%
- Weight change (%) (Stability test (storage); 60° C., 48 days, listed as Embodiment 7): +0.01%
- storage stability (in words) (Stability test (storage); at 25° C. and 60° C.): excellent storage stability
- efficacy higher than other crystal forms of the ammonium salt [3]: about 5%
- Peak [1, 7]: 179.83° ° C.
- Start of heat absorption [1, 7]: 161.84° ° C.
- temperature below which the weight of the crystal was basically unchanged [2, 8]: 139.5 °C
- temperature from which weight decreased rapidly (decomposition) [2, 8]: 206.5 °C
- temperature from which weight started to decrease slowly (release of ammonia gas) [2, 8]: 139.5 °C
- Plant control effect (%) Bluegrass (Bluegrass; [9]): 85%
- Plant control effect (%) Alopecurus aequalis (Alopecurus aequalis; [9]): 86%
- Plant control effect (%) Euphorbia helioscopia (Euphorbia helioscopia; [9]): 85%
- Appearance change (Hygroscopicity test; 25° C., humidity 65%): Unchanged
- Weight change (%) (Hygroscopicity test; 25° C., humidity 65%, listed as Embodiment 4): +0.03%
- Weight change (%) (Hygroscopicity test; 25° C., humidity 65%, listed as Embodiment 6): +0.03%
- Weight change (%) (Hygroscopicity test; 25° C., humidity 65%, listed as Embodiment 7): +0.01%
- Appearance change (Hygroscopicity test; 25° C., humidity 80%): Unchanged
- Weight change (%) (Hygroscopicity test; 25° C., humidity 80%, listed as Embodiment 4): +1.12%
- Weight change (%) (Hygroscopicity test; 25° C., humidity 80%, listed as Embodiment 6): +1.17%
- Weight change (%) (Hygroscopicity test; 25° C., humidity 80%, listed as Embodiment 7): +1.12%

Compound: CP(=O)(O)CC[C@H](N)C(=O)O.N [Crystal form B, L-glufosinate ammonium]
- Peak [1, 10]: 134° ° C.
- Start of heat absorption [1, 10]: 125° ° C.
- Plant control effect (%) Rumex (Rumex): 100%
- Plant control effect (%) Bluegrass (Bluegrass; [11]): 80%
- Plant control effect (%) Alopecurus aequalis (Alopecurus aequalis; [11]): 85%
- Plant control effect (%) Euphorbia helioscopia (Euphorbia helioscopia; [11]): 80%
- Weight change (%) (Hygroscopicity test; 20° C., humidity 65%, listed as B): +0.03%
- Weight change (%) (Hygroscopicity test; 20° C., humidity 80%, listed as B): +1.55%

Compound: CP(=O)(O)CC[C@H](N)C(=O)O.N [Crystal form A, L-glufosinate ammonium]
- Appearance (change after storage) (Stability test (storage); 60° C., 7 days): Unchanged
- Crystal form (change after storage) (Stability test (storage); 60° C., 7 days): Unchanged
- stability (in words) (Stability test (storage)): excellent stability
- Peak [1, 12]: 129° ° C.
- Start of heat absorption [1, 12]: 110° ° C.
- high temperature stability (in words) ([1]; versus the ammonium salt crystal forms in the existing patent): better high temperature stability
- Plant control effect (%) Bluegrass (Bluegrass; [13]): 80%
- Plant control effect (%) Alopecurus aequalis (Alopecurus aequalis; [13]): 80%
- Plant control effect (%) Euphorbia helioscopia (Euphorbia helioscopia; [13]): 80%
- Weight change (%) (Hygroscopicity test; 20° C., humidity 65%, listed as A): +0.02%
- Weight change (%) (Hygroscopicity test; 20° C., humidity 80%, listed as A): +1.45%

Compound: CP(=O)(O)CCC(N)C(=O)O.N (stereo not drawn) [Crystal form in CN113831364A, reference compound]
- Start of heat absorption [1]: 104° ° C.
- Peak [1]: 115° ° C.
